ChEMBL document CHEMBL1201862, “PubChem BioAssay data set” (2004)
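Five compound concentrations were applied to cells in 96-well plates for 48 hours; endpoints were derived by simple linear interpolation of the resulting dose-response curve. At the GI50, growth is halved.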 Calls of active or inactive are those of the source. No stated cut-off is given here; in the data, active = GI50 up to about 1.1 µM and inactive = higher.

Key:
Assay in all cases: growth of human tumour cells (NCI), 48 h
[1] = tested on: OVCAR-3
[2] = tested on: NCI-H23
[3] = tested on: Malme-3M
[4] = tested on: HCT-15
[5] = tested on: SN12C
[6] = tested on: SNB-19
[7] = tested on: ACHN
[8] = tested on: OVCAR-4
[9] = tested on: A549
[10] = tested on: CCRF-CEM
[11] = tested on: SK-MEL-28
[12] = tested on: K562
[13] = tested on: U-251
[14] = tested on: SK-MEL-5
[15] = tested on: HT-29
[16] = tested on: SR
[17] = tested on: HL-60
[18] = tested on: NCI-H522
[19] = tested on: OVCAR-5
[20] = tested on: MOLT-4

Row | Compound | GI50 [1] | GI50 [2] | GI50 [3] | GI50 [4] [µM] | GI50 [5] | GI50 [6] | GI50 [7] | GI50 [8] | GI50 [9] | GI50 [10] | GI50 [11] | GI50 [12] | GI50 [13] | GI50 [14] | GI50 [15] | GI50 [16] | GI50 [17] | GI50 [18] | GI50 [19] | GI50 [20]
1 | c1ccc(CSC2(SCc3ccccc3)CCCC2)cc1 | > 10 µM (inactive) | > 10 µM (inactive) | > 10 µM (inactive) | > 10 | > 10 µM (inactive) | > 10 µM (inactive) | > 10 µM (inactive) | > 10 µM (inactive) | > 10 µM (inactive) | > 10 µM (inactive) | > 10 µM (inactive) | > 10 µM (inactive) | > 10 µM (inactive) | > 10 µM (inactive) | > 10 µM (inactive) | > 10 µM (inactive) | > 10 µM (inactive) | > 10 µM (inactive) | > 10 µM (inactive) | > 10 µM (inactive)
2 | c1ccc(C(NC2=NCCO2)c2ccccc2)cc1 | > 10 µM (inactive) | > 10 µM (inactive) | > 10 µM (inactive) | > 10 | > 10 µM (inactive) | > 10 µM (inactive) | > 10 µM (inactive) | > 10 µM (inactive) | > 10 µM (inactive) | > 10 µM (inactive) | > 10 µM (inactive) | > 10 µM (inactive) | > 10 µM (inactive) | > 10 µM (inactive) | > 10 µM (inactive) | > 10 µM (inactive) | > 10 µM (inactive) | > 10 µM (inactive) | > 10 µM (inactive) | > 10 µM (inactive)
3 | CN(/N=C1\C(=O)Nc2ccccc21)c1ccccc1 | 33.7 µM (inactive) | 74.6 µM (inactive) | 31.9 µM (inactive) | 44.2 | – | > 100 µM (inactive) | 77.6 µM (inactive) | 95.3 µM (inactive) | 72.9 µM (inactive) | 58.7 µM (inactive) | > 100 µM (inactive) | > 100 µM (inactive) | 74.8 µM (inactive) | 32.6 µM (inactive) | 54.3 µM (inactive) | 94 µM (inactive) | 56.5 µM (inactive) | 87.3 µM (inactive) | 45.6 µM (inactive) | 45.2 µM (inactive)
4 | Cc1cnc(/N=c2\sc(C)cn2-c2ncc(C)s2)s1 | > 100 µM (inactive) | > 100 µM (inactive) | > 100 µM (inactive) | > 100 | > 100 µM (inactive) | > 100 µM (inactive) | > 100 µM (inactive) | > 100 µM (inactive) | > 100 µM (inactive) | > 100 µM (inactive) | > 100 µM (inactive) | > 100 µM (inactive) | > 100 µM (inactive) | > 100 µM (inactive) | > 100 µM (inactive) | > 100 µM (inactive) | > 100 µM (inactive) | > 100 µM (inactive) | > 100 µM (inactive) | > 100 µM (inactive)
5 | CC(=O)C1CC[C@@H]2[C@H](CC[C@]3(C)[C@@H](O)CC[C@@H]23)[C@H]1C(=O)O (stereo partly specified) | > 100 µM (inactive) | > 100 µM (inactive) | > 100 µM (inactive) | > 100 | – | > 100 µM (inactive) | – | > 100 µM (inactive) | > 100 µM (inactive) | > 100 µM (inactive) | > 100 µM (inactive) | > 100 µM (inactive) | > 100 µM (inactive) | > 100 µM (inactive) | > 100 µM (inactive) | > 100 µM (inactive) | > 100 µM (inactive) | > 100 µM (inactive) | > 100 µM (inactive) | > 100 µM (inactive)
6 | COc1c(Br)cc(CC(N)=O)c(O)c1Br | > 100 µM (inactive) | > 100 µM (inactive) | > 100 µM (inactive) | – | > 100 µM (inactive) | > 100 µM (inactive) | > 100 µM (inactive) | > 100 µM (inactive) | > 100 µM (inactive) | > 100 µM (inactive) | > 100 µM (inactive) | > 100 µM (inactive) | > 100 µM (inactive) | > 100 µM (inactive) | > 100 µM (inactive) | > 100 µM (inactive) | > 100 µM (inactive) | > 100 µM (inactive) | > 100 µM (inactive) | > 100 µM (inactive)
